Here are results for 104 compounds from PubChem BioAssay AID1996.

Values after ≈ are worked out from the molar mass of the structure shown. Some results are limits rather than exact numbers.

For this data set the following is noted: buffer; pH 7.4; 200.0 µM.
A word on the solubility (kinetic): it is solubility judged after dilution from a stock solution rather than from solid. Regarding `NC(=O)CN1CCCC1c1ccc2c(c1)OCCO2` (centres undefined), the solubility (kinetic) is more than 39.3 µg/mL. For `CC(OC(=O)CCOc1ccccc1)C(=O)Nc1ccc(Cl)cn1` (centres undefined) the value was 34.3 µg/mL (≈ 98.3 µM); for `COc1ccc(NC(=O)CSC2=NCCN2)cc1.Cl`, more than 45.3 µg/mL. As for `CCC(Sc1nc2ncnc(N)c2[nH]1)C(=O)O` (centres undefined), the figure is 34.1 µg/mL (≈ 135 µM). `CCCCOc1ccc(C(=O)NCC(=O)NC2CCCCC2)cc1` gave a solubility (kinetic) of 4.7 µg/mL (≈ 14.1 µM). `O=C(CSc1nnc(-c2ccccc2)o1)NC1CC1` registered a solubility (kinetic) of more than 41.3 µg/mL. In the case of `CN1CCC(N(C)S(=O)(=O)c2ccc(F)cc2F)CC1`, the solubility (kinetic) is more than 45.7 µg/mL.

For `COCCCNc1ncnc2c1nc1n2CCCC1`, the kinetic solubility was more than 39.2 µg/mL. As for `CC(O)CNCCCOc1cccc(C(F)(F)F)c1.O=C(O)C(=O)O` (centres undefined), the figure is 51.7 µg/mL; as for `CC(=O)c1cccc(NC(=O)COC(=O)Cn2cnc3ccccc32)c1`, more than 52.7 µg/mL. `O=C(O)c1ccc(S(=O)(=O)N2CCSCC2)cc1` gave a kinetic solubility of 42.9 µg/mL (≈ 149 µM). In turn, `O=C(NC(=S)Nc1ncccn1)c1ccc(F)cc1` displayed a kinetic solubility of 7.3 µg/mL (≈ 26.4 µM). Against the preceding compound, the solubility kinetic is about 5.9-fold lower. Take `CCC(=O)N1C(=O)C2(Nc3ccccc3N2)c2ccccc21`: the kinetic solubility is more than 44 µg/mL.

Take `O=c1c2c3c(sc2nc2n1CCCCC2)C(O)CCC3` (centres undefined): the kinetic solubility was more than 43.6 µg/mL.

The compound `O=C(OCC(=O)N1CCCC1)c1cc(F)c(F)cc1Cl` had a kinetic solubility of 45.3 µg/mL (≈ 149 µM). As for `COc1ccc(C(=O)O/N=C(\N)c2ccc(OC)c(OC)c2)cc1`, the kinetic solubility was found to be 9.3 µg/mL (≈ 28.2 µM). The compound `CC1(C)CC(=O)C=C(NCCc2c[nH]c3ccccc23)C1` had a kinetic solubility of more than 42.4 µg/mL.

With `CC(C)(C)c1ccccc1NC(=O)C1=COCCO1`, the solubility (kinetic) is more than 39.2 µg/mL. `COc1ccc(-c2nc(C)sc2CC(=O)O)cc1OC`: the kinetic solubility was determined as 42 µg/mL (≈ 143 µM).

`CCC(=O)Nc1ccc(S(=O)(=O)N2CCc3ccccc32)cc1` showed a kinetic solubility of 41.2 µg/mL (≈ 125 µM). The solubility kinetic values of the last two compounds are within 1.5-fold of each other. Take `Nc1nc(NCc2ccco2)nc(Nc2cccc(F)c2)c1[N+](=O)[O-]`: the kinetic solubility was determined as 0.3 µg/mL (≈ 0.871 µM). `Cc1cc(/C=C2/NC(=O)NC2=O)c(C)n1-c1ccc(C#N)cc1`: the solubility (kinetic) turned out to be 8.4 µg/mL (≈ 27.4 µM). For the compound `CCCCOc1ccc(CC(=O)NO)cc1`, the solubility (kinetic) is more than 33.5 µg/mL. `COc1ccc2nc(NC(=O)C34CC5CC(CC(NC(C)=O)(C5)C3)C4)sc2c1`: the solubility (kinetic) came to 41.2 µg/mL (≈ 103 µM). For `CCCN1CCc2c(sc3nc(SC)n(-c4ccccc4)c(=O)c23)C1`, the kinetic solubility stood at 33.9 µg/mL (≈ 91.2 µM). As for `Cc1cccc(OP(N)(=O)Oc2cccc(C)c2)c1`, the figure is 40.6 µg/mL (≈ 146 µM).

As to `O=C(Nc1ccc2ccccc2n1)c1ccccc1Cl`, the kinetic solubility is 1.1 µg/mL (≈ 3.89 µM).

The compound `Nc1ccccc1-n1c(=O)n(Cc2ccccc2F)c(=O)c2[nH]cnc21` registered a solubility (kinetic) of 35 µg/mL (≈ 99.6 µM). Compared with the last compound, the solubility kinetic is about 32-fold higher. As for `O=c1[nH]c2cc3c(cc2cc1CN(Cc1cccnc1)C(=S)NCc1ccco1)OCCO3`, the solubility (kinetic) is less than 0.2 µg/mL.

`Fc1ccccc1Nc1nc2ccccc2o1`: the kinetic solubility stood at 16.9 µg/mL (≈ 74 µM).

`O=C(COC(=O)c1ccncc1)c1ccc(Br)cc1` showed a solubility (kinetic) of 44 µg/mL (≈ 137 µM).

For the compound `CCN(CC)c1c([N+](=O)[O-])c(=O)n(C)c2ccccc12`, the solubility (kinetic) was found to be 24.9 µg/mL (≈ 90.4 µM). For `Cc1ccc(Cl)cc1NS(=O)(=O)c1cn(C)nc1C` the value was more than 45 µg/mL. For `O=C(Nc1ccc(-c2n[nH]c(=S)o2)cc1)c1ccccc1` the value was more than 44.6 µg/mL.

`CCOC(=O)Nc1ccc(N2CCOCC2)c(S(=O)(=O)Nc2ccc(Cl)cc2)c1` returned a solubility (kinetic) of 7.8 µg/mL (≈ 17.7 µM). With `Cc1c(Cl)cccc1NC(=O)C1CCN(c2cnccn2)CC1`, the solubility (kinetic) amounted to 2.1 µg/mL (≈ 6.35 µM). For `COc1cc(/C=C2\SC(N)=NC2=O)cc(Cl)c1O` the value was 9.6 µg/mL (≈ 33.7 µM); for `COc1ccc(NC(=S)NCc2ccccc2Cl)c(OC)c1`, less than 0.4 µg/mL; for `CC(C)C[C@H](NC(=O)Nc1ccc2c(c1)OCCO2)C(=O)O`, 41.1 µg/mL (≈ 133 µM).

Turning to `O=C1c2cccc([N+](=O)[O-])c2C(=O)N1C1CCCCC1`, the kinetic solubility was determined as 17.7 µg/mL (≈ 64.5 µM).

The compound `CC(C)CN1C(=O)C(=O)N(CC(=O)c2ccc[nH]2)C1=O` yielded a solubility (kinetic) of 40.7 µg/mL (≈ 147 µM).

As to `O=C(NC(=S)NCC1CCCO1)c1ccco1` (centres undefined), the kinetic solubility was determined as 37.6 µg/mL (≈ 148 µM). As for `Cc1nc(N2CCOCC2)nc(N2CCCCC2C)c1[N+](=O)[O-]` (centres undefined), the figure is 12.2 µg/mL (≈ 38 µM); as for `Cc1cccc(CC(=O)Nc2ccon2)c1`, more than 32.4 µg/mL. Consider `COc1ccc([N+](=O)[O-])c(OC)c1C(=O)NC(=O)Nc1nc(C)cc(C)n1`, for which the solubility (kinetic) turned out to be 43.6 µg/mL (≈ 116 µM). For `Cc1ccc(C)c(C(=O)CSc2nc(N)cc(=O)[nH]2)c1`, the kinetic solubility stood at 19.2 µg/mL (≈ 66.4 µM). For `O=C(CN1C(=O)NC(c2ccc(F)cc2)C1=O)NC1CCCCC1` (centres undefined) the value was more than 50 µg/mL. As for `O=C(c1cc(-c2ccccc2)on1)N1CCCCCC1`, the figure is 39.1 µg/mL (≈ 145 µM). In the case of `N#Cc1cnc(Oc2ccc(Cl)cc2)nc1N`, the kinetic solubility came to 4.3 µg/mL (≈ 17.4 µM).

As for `Cc1ccc(CN2CC(C(=O)N(C)CC(=O)Nc3cccc(F)c3)CC2=O)cc1` (centres undefined), the solubility (kinetic) stood at 46.2 µg/mL (≈ 116 µM). For `CSc1ncccc1C(=O)OCC(=O)NC1CCCc2ccccc21` (centres undefined), the solubility (kinetic) is 5.5 µg/mL (≈ 15.4 µM). As for `CCOCCCNC(=O)c1cc2c(=O)n(CC)c3ccccc3c2s1`, the figure is 4.8 µg/mL (≈ 13.4 µM); as for `NC(=O)c1ccsc1NC(=O)COC(=O)CCOc1ccccc1`, 16.9 µg/mL (≈ 48.5 µM). `O=C(NCC(=O)N1CCOCC1)c1ccccc1` gave a kinetic solubility of more than 37.2 µg/mL. `COc1ccc(C)cc1S(=O)(=O)NNc1nc(C)cc(C)n1`: the solubility (kinetic) is more than 48.4 µg/mL.

Consider `COc1cc(CN2CCc3ccccc3C2)cc([N+](=O)[O-])c1O`, for which the kinetic solubility is 42.1 µg/mL (≈ 134 µM). `COc1ccc2c(c1)sc1nc(=O)ccn12` showed a solubility (kinetic) of more than 34.8 µg/mL.

Consider `N#Cc1ccccc1CSc1ncccc1C(=O)O`, for which the kinetic solubility is more than 40.5 µg/mL. As for `COc1cccc(NC(=O)c2ccccc2-c2ccccc2C(=O)O)c1`, the figure is 51.9 µg/mL (≈ 149 µM); as for `Cc1ccc[n+](CC(=O)N2CCCc3ccccc32)c1.[Cl-]`, more than 45.4 µg/mL. For `O=C(c1ccc(-c2ccccc2)cc1)N1CCN(c2ccccc2F)CC1` the value was 1.8 µg/mL (≈ 4.99 µM). As for `O=C(O)COc1ccc(/C=N/O)cc1Br`, the solubility (kinetic) is 41 µg/mL (≈ 150 µM). `CC(Oc1ccc(Cl)cc1)C(=O)NCC1CCCO1` (centres undefined) had a kinetic solubility of 41.5 µg/mL (≈ 146 µM). For `Fc1ccc(CNC(=S)Nc2ccccc2F)cc1`, the kinetic solubility is more than 41.7 µg/mL. As for `CCCCNC(=O)O/N=C(\N)CS(=O)(=O)C(C)(C)C`, the figure is 36.5 µg/mL (≈ 124 µM); as for `CCOc1ccc(S(=O)(=O)N2CN(c3cccc(C(C)=O)c3)c3nc4ccccc4nc32)cc1`, 3.1 µg/mL (≈ 6.53 µM); as for `COC(=O)c1cn(-c2cccc(C)n2)cn1`, more than 32.6 µg/mL. As for `COc1ccc(Cn2c(C)nc3c(c(=O)c4ccccc4n3C)c2=O)cc1`, the figure is 0.7 µg/mL (≈ 1.94 µM); as for `COc1ccc(COCC(O)CN2CCC(C(N)=O)CC2)cc1` (centres undefined), more than 48.4 µg/mL. The compound `CC(NC(=O)/C(=C\c1ccco1)NC(=O)c1ccco1)C(=O)O` (centres undefined) gave a kinetic solubility of 46.5 µg/mL (≈ 146 µM).

`CCCCn1c(=O)c(C(=O)Nc2ccccc2F)c(O)c2ccccc21` gave a solubility (kinetic) of less than 0.4 µg/mL. As to `Cl.O=C(CCN1CCN(CCO)CC1)N1c2ccccc2Sc2ccc(C(F)(F)F)cc21`, the solubility (kinetic) was found to be 65.7 µg/mL. As for `Clc1ccccc1Cc1noc(CN2CCN3CCCC3C2)n1` (centres undefined), the figure is more than 49.9 µg/mL; as for `O=C(Cc1ccc([N+](=O)[O-])cc1)Nc1ccc(Br)cn1`, 2.4 µg/mL (≈ 7.14 µM); as for `CCN(C/C=C/c1ccccc1OC)Cc1ccccc1`, 18.3 µg/mL (≈ 65 µM). `Cn1c(N2CCOCC2)c(C#N)c2ccccc21` came in with a kinetic solubility of 17 µg/mL (≈ 70.5 µM). This solubility kinetic and that of the compound before are within 1.5-fold of each other. As for `O=C(Nc1ccc(Cl)cc1F)c1ccc2c(c1)C(=O)N(Cc1ccncc1)C2=O`, the figure is 10.8 µg/mL (≈ 26.4 µM); as for `Cn1cccc1C(=O)NCC1CCCCC1`, 28 µg/mL (≈ 127 µM); as for `CCN(CC)c1ccc2c(O)cc(=O)oc2c1`, more than 35 µg/mL. Compound `COc1ccccc1NC(=O)NCCN1CCNC1=O` displayed a kinetic solubility of 39.7 µg/mL (≈ 143 µM). For `COc1ccc(CNc2nc3ccccc3n2C(C)C)c(O)c1` the value was 25.7 µg/mL (≈ 82.5 µM); for `NCCNC[C@@H]1COC2(CCCCCCCCCCC2)O1`, 32.7 µg/mL (≈ 110 µM). Take `CC(=O)N(CCOc1ccccc1)CCOc1ccccc1`: the solubility (kinetic) was more than 44.9 µg/mL. As for `COc1nc2ccccc2nc1N1CCN(Cc2ccc3c(c2)OCO3)CC1`, the figure is 2.9 µg/mL (≈ 7.66 µM). As for `O=S(=O)(NC1CCCCC1)c1cccc2nsnc12`, the figure is 31.6 µg/mL (≈ 106 µM); as for `CC1=NCCN1S(=O)(=O)c1c(C(C)C)cc(C(C)C)cc1C(C)C`, 16.8 µg/mL (≈ 47.9 µM).

Turning to `O=C(NCc1ccc(Cl)cc1)c1cc2ccccc2oc1=O`, the solubility (kinetic) was less than 0.7 µg/mL. As for `Cc1ccc(CNc2nc3ccccc3n2C)o1`, the figure is more than 36.2 µg/mL. As for `Cc1ccc(CNC(=O)CSc2ccsc2[N+](=O)[O-])cc1`, the figure is 5.3 µg/mL (≈ 16.4 µM). Take `N/C(=N\OC(=O)CCC1CCCC1)c1ccc(Cl)cc1`: the solubility (kinetic) amounted to 1.2 µg/mL (≈ 4.07 µM). `Nc1cccc(-n2cccc2)c1` gave a kinetic solubility of 18.2 µg/mL (≈ 115 µM). This solubility kinetic lies about 15-fold higher than the previous one. Consider `O=C(O)CSCC(=O)NCc1csc2ccc(Cl)cc12`, for which the solubility (kinetic) worked out at 37.9 µg/mL (≈ 115 µM). For `CCc1ccccc1NC(=O)CN(C1CCCCC1)S(C)(=O)=O` the value was more than 50.8 µg/mL; for `COc1ccc(NC(=O)C2CCCO2)c(OC)c1` (centres undefined), 33.9 µg/mL (≈ 135 µM). For the compound `O=C(O)CCC(=O)N1CCN(Cc2ccc3c(c2)OCO3)CC1`, the kinetic solubility came to 28.1 µg/mL (≈ 87.7 µM).

On to `COC(=O)c1cn(C(=O)c2cccc(C)c2)c2ccccc12`, for which the kinetic solubility came to 3.9 µg/mL (≈ 13.3 µM). For `CC(=O)Nc1ccc(C)c(NC(=S)Nc2ccc(F)cc2)c1` the value was 42.6 µg/mL (≈ 134 µM). Take `COc1cc(C(C[N+](=O)[O-])c2c(C)cc3ccccn23)ccc1O` (centres undefined): the kinetic solubility stood at 8.9 µg/mL (≈ 27.3 µM). For the compound `O=[N+]([O-])c1ccc(Cc2ccccn2)c([N+](=O)[O-])c1`, the kinetic solubility stood at 33.6 µg/mL (≈ 130 µM). For `COC(=O)CNC(=O)CSc1ccccn1` the value was more than 36 µg/mL. For `CC(=O)N1CCC(c2c[nH]c3ccccc23)CC1` the value was more than 36.3 µg/mL. With `COc1cc(C(=O)N2CCCc3ccccc32)c([N+](=O)[O-])cc1OC`, the kinetic solubility was more than 51.4 µg/mL. For `CCOC(=O)c1[nH]cnc1C(=O)Nc1ccccc1` the value was 11.4 µg/mL (≈ 44 µM); for `CC(C)c1ccc(OCC(=O)N2CCCN(C)CC2)cc1`, more than 43.6 µg/mL.
